Results as given in patent publication US20240254096A1, “ULTRAVIOLET AND VISIBLE RADIATION ABSORBING COMPOUNDS” (ELKIMIA INC., priority 2021, published 2024).
Values joined by “and” are separate entries in the source; they are usually repeats but may differ in a detail not shown here. Equal values may be shown once.

Assay: Thermal stability by Thermogravimetric Analysis (TGA)
Format: physicochemical
Settings: for T onset: by intersection points of tangents
Method: Briefly, the residual weight (%) of the compounds was measured at different temperatures, including 100° C. for water boiling, and other temperatures corresponding to extrusion processes, and the T onset (° C.) by intersection points of tangents was checked. The results are represented in Table 16 below, and in FIG. 6.

| Structure (SMILES) | Residual weight % at different temperatures (100 (° C.)) | Residual weight % at different temperatures (190 (° C.)) | Residual weight % at different temperatures (210 (° C.)) | Residual weight % at different temperatures (250 (° C.)) | T onset |
| --- | --- | --- | --- | --- | --- |
| CCOC(=O)CNC1=C/C(=N/c2ccccc2)CC(C)(C)C1 [Formula 46] | 99.4 w % | 99.1 w % | 98.4 w % | 52.4 w % | 215.2 C |
| CCOC(=O)CNC1=C/C(=N/c2ccc(Nc3ccccc3)cc2)CC(C)(C)C1 [Formula 47] | 99.5 w % | 99.2 w % | 99.0 w % | 79.5 w % | 226.0 C |
| CCOC(=O)CNC1=C/C(=N/c2ccc(N3CCOCC3)cc2)CC(C)(C)C1 [Formula 48] | 99.2 w % | 98.8 w % | 97.8 w % | 72.9 w % | 215.7 C |
| CCOC(=O)CNC1=C/C(=N/c2ccc(OCc3ccccc3)cc2)CC(C)(C)C1 [Formula 49] | 99.3 w % | 97.8 w % | 97.2 w % | 70.2 w % | 215.3 C |
| CCOC(=O)CNC1=C/C(=N/c2ccc(Oc3ccccc3)cc2)CC(C)(C)C1 [Formula 50] | 99.2 w % | 98.1 w % | 97.9 w % | 69.3 w % | 229.5 C |
| CCOC(=O)CNC1=C/C(=N/c2ccc(C(C)=O)cc2)CC(C)(C)C1 [Formula 51] | 99.5 w % | 96.1 w % | 85.8 w % | 65.1 w % | 188.0 C |
| CCOC(=O)CNC1=C/C(=N/c2ccc(N(C)C)cc2)CC(C)(C)C1 [Formula 52] | 95.9 w % | 92.4 w % | 86.0 w % | 63.2 w % | 199.1 C |
| CCOC(=O)CNC1=C/C(=N/c2ccc(OC(F)(F)F)cc2)CC(C)(C)C1 [Formula 53] | 99.5 w % | 98.6 w % | 86.3 w % | 40.5 w % | 199.3 C |
| CCOC(=O)CNC1=C/C(=N/c2ccc(NC(=O)OC(C)(C)C)cc2)CC(C)(C)C1 [Formula 54] | 98.0 w % | 84.0 w % | 72.7 w % | 60.1 w % | 176.7 C |

More lines, now with the values ahead:

| Residual weight % at different temperatures (100 (° C.)) | Residual weight % at different temperatures (190 (° C.)) | Residual weight % at different temperatures (210 (° C.)) | Residual weight % at different temperatures (250 (° C.)) | T onset | Structure (SMILES) |
| --- | --- | --- | --- | --- | --- |
| 97.8 w % | 96.4 w % | 92.2 w % | 71.2 w % | 205.0 C | CCOC(=O)CNC1=C/C(=N/c2ccc(Cn3cncn3)cc2)CC(C)(C)C1 [Formula 55] |
| 99.4 w % | 98.9 w % | 94.3 w % | 68.0 w % | 207.6 C | CCOC(=O)CNC1=C/C(=N/c2ccc3c(c2)OCCO3)CC(C)(C)C1 [Formula 56] |
| 97.8 w % | 85.6 w % | 77.0 w % | 58.2 w % | 168.9 C | CCOC(=O)C1CSC2=C(CC(C)(C)C/C2=N\c2ccc(OCc3ccccc3)cc2)N1 (centres unmarked) [Formula 60] |
| 99.0 w % | 98.2 w % | 92.6 w % | 62.1 w % | 205.0 C | CCOC(=O)C1CSC2=C(CC(C)(C)C/C2=N\c2ccc(Oc3ccccc3)cc2)N1 (centres unmarked) [Formula 61] |
| 94.5 w % | 85.0 w % | 75.8 w % | 54.0 w % | 186.1 C | CCOC(=O)C1CSC2=C(CC(C)(C)C/C2=N\c2ccc(N3CCOCC3)cc2)N1 (centres unmarked) [Formula 62] |
| 98.7 w % | 97.3 w % | 88.4 w % | 68.0 w % | 197.4 C | C#Cc1ccc(/N=C2\CC(C)(C)CC3=C2SCC(C(=O)OCC)N3)cc1 (centres unmarked) [Formula 63] |
| 97.2 w % | 87.7 w % | 80.3 w % | 60.9 w % | 187.0 C | CCOC(=O)C1CSC2=C(CC(C)(C)C/C2=N\c2ccc(Nc3ccccc3)cc2)N1 (centres unmarked) [Formula 64] |
| 95.3 w % | 91.7 w % | 89.3 w % | 80.3 w % | 200.2 C | CCOC(=O)C1CSC2=C(CC(C)(C)C/C2=N\c2ccc(Cn3cncn3)cc2)N1 (centres unmarked) [Formula 65] |
| 99.4 w % | 92.9 w % | 82.0 w % | 68.1 w % | 190.5 C | COC(=O)C(Cc1ccccc1)NC1=C/C(=N/c2ccc(F)cc2)CC(C)(C)C1 (centres unmarked) [Formula 67] |
| 97.9 w % | 93.6 w % | 87.3 w % | 75.0 w % | 197.2 C | COC(=O)C(Cc1ccccc1)NC1=C/C(=N/c2ccc(OC)cc2)CC(C)(C)C1 (centres unmarked) [Formula 68] |
| 99.3 w % | 95.2 w % | 88.0 w % | 82.5 w % | 193.6 C | CCCCCCCCOc1ccc(/N=C2/C=C(NC(Cc3ccccc3)C(=O)OC)CC(C)(C)C2)cc1 (centres unmarked) [Formula 69] |
| 99.6 w % and 99.5 w % | 99.4 w % and 99.2 w % | 99.3 w % and 99.0 w % | 97.7 w % and 91.7 w % | 256.0 C and 248.2 C | C#Cc1ccc(NC2C=C(NCC(=O)OCC)CC(C)(C)C2)cc1 (centres unmarked) [Formula 76] |
| 99.2 w % | 91.2 w % | 83.8 w % | 66.4 w % | 187.4 C | CCOC(=O)C1CSC2=C(CC(C)(C)CC2Nc2ccccc2)N1 (centres unmarked) [Formula 77] |
